Assay results: US11993513B2, “Process for manufacturing an aqueous hydrogen peroxide solution” (SOLVAY SA, priority 2018, dated 2024)

What was measured:
Format in all cases: physicochemical
[1] = Density of polar solvents; settings: ambient temperature
[2] = Solubility tests of hydrogenated quinones (QH) in solvent mixtures, synthetic EQ/ETQ working solutions; settings: comparison in words
Procedure: The determination of the QH solubility was performed on synthetic EQ/ETQ working solutions. These quinones mixed in the tested solvents have been hydrogenated to a fixed level and cooled down successively to 3 different temperatures before the measurement (min. 3 hours to stabilize the system between each measurement). The conditions applied for these tests were:
In this figure, Kb stands for the weight partition coefficient of hydrogen peroxide between the water and the working solution (mixture of quinones and organic solvents). It is calculated using the following formula: Kb=(g H2O2/kg aqueous phase)/(g H2O2/kg organic phase)
The maximum solubility of a hydrogenated quinone (QH) in a solvent mixture is directly correlated with the productivity of the working solution. The higher is the QH solubility, the higher will be the theoretical quantity of hydrogen peroxide achievable per kg of WS (Productivity). These theoretical values, designated by the terms “Productivity (gH2O2/kg of WS) measured” in Table 1, were calculated as follows: […]
1 mole (240 g) ETQH (which actually is the QH in our Examples) per kg of WS will produce 1 mole (34 g) of H2O2 per kg of WS.

[3] = Stability of the nitrile solvent during the AO process; settings: nitrile function not protected
Source text: As explained above, the main feature of the invention is the recourse to a mixture of a polar organic solvent and a non-polar organic solvent wherein the polar organic solvent is a substituted cyclohexane carbonitrile. […] The substituent(s) are preferably alkyl groups, preferably methyl and/or ethyl group(s). […] Another alternative would be to use at least one propyl, diethyl, methyl isopropyl, butyl, t-butyle . . . the latter being preferred.

| Density of polar solvents at amb T° [1] [kg/L] | Productivity values compared with sextate or a linear nitrile like decanenitrile [2] | Stability of the molecule during the AO process [3] | Compound |
| --- | --- | --- | --- |
| 0.83 | – | – | CCCCCCCCCC#N [Decanenitrile] |
| 0.89 | much higher (almost the double in fact) | – | CC1CCCC(C)(C)C1C#N (centres unmarked) [TMCH-CN, 2,2,6-trimethyl-cyclohexane-carbonitrile] |
| – | – | undergoes degradation | N#CC1CCCCC1 [Unsubstituted cyclohexane carbonitrile, cyclohexane carbonitrile] |
| 0.94 | – | – | methyl cyclohexyl acetate [Sextate] |
